Reference: patent publication US5840684A, “Glycopeptide antibiotic derivatives” (Eli Lilly and Company, priority 1995, dated 1998)
In brackets after ≈: the same amount, converted by molar mass.

What was measured:
[1] = test system: Staphylococcus haemolyticus 415; assay: broth micro-dilution MIC; format: cell-based
Experimental: (§1) The formula I compounds have in vitro and in vivo activity against Gram-positive pathogenic bacteria. The MIC's were determined using a standard broth micro-dilution assay.

[2] = test system: Staphylococcus haemolyticus 105; assay: broth micro-dilution MIC; format: cell-based
Experimental: as §1

[3] = test system: Streptococcus pneumoniae P1; assay: broth micro-dilution MIC; format: cell-based
Experimental: as §1

Entercoccus faecium 2041 = assay: broth micro-dilution MIC; format: cell-based; conditions: Entercoccus faecium 2041
Experimental: as §1

Entercoccus faecium 180 = assay: broth micro-dilution MIC; format: cell-based; conditions: Entercoccus faecium 180
Experimental: as §1

[4] = test system: Enterococcus gallinarum 245; assay: broth micro-dilution MIC; format: cell-based; conditions: Enterococcus gallinarum 245
Experimental: as §1

[5] = test system: Staphylococcus epidermidis 270; assay: broth micro-dilution MIC; format: cell-based
Experimental: as §1

[6] = test system: Staphylococcus aureus SA1199B; format: cell-based
Experimental: (§2) The MIC's were determined using a standard broth micro-dilution assay.

[7] = test system: Staphylococcus aureus S13E; format: cell-based
Experimental: as §2

[8] = test system: vancomycin-susceptible enterococci; assay: broth micro-dilution, mean geometric MIC; format: cell-based, Enterococcus faecium and Enterococcus faecalis; conditions: enterococci, 24-hour incubation
[9] = test system: Staphylococcus aureus SA1199A; assay: broth micro-dilution MIC; format: cell-based
Experimental: as §2

[10] = test system: Staphylococcus aureus 491; assay: broth micro-dilution MIC; format: cell-based
Experimental: as §2

[11] = test system: Staphylococcus aureus 489; assay: broth micro-dilution MIC; format: cell-based
Experimental: as §2

[12] = test system: Streptococcus pyogenes C203; assay: broth micro-dilution MIC; format: cell-based
Experimental: as §2

[13] = test system: Staphylococcus aureus 446; assay: broth micro-dilution MIC; format: cell-based
Experimental: as §2

[14] = test system: Staphylococcus aureus 447; assay: broth micro-dilution MIC; format: cell-based
Experimental: as §2

[15] = test system: Staphylococcus aureus X778; assay: broth micro-dilution MIC; format: cell-based
Experimental: as §2

[16] = test system: Entercoccus faecium 180-1; assay: broth micro-dilution MIC; format: cell-based
Experimental: as §2

[17] = test system: Staphylococcus aureus SA1199; assay: broth micro-dilution MIC; format: cell-based
Experimental: as §2

[18] = test system: Staphylococcus aureus X400; assay: broth micro-dilution MIC; format: cell-based
Experimental: as §2

Entercoccus faecium 276 = assay: broth micro-dilution MIC; format: cell-based
Experimental: as §2

[19] = test system: vancomycin-resistant enterococci; assay: broth micro-dilution, mean geometric MIC; format: cell-based, Enterococcus faecium and Enterococcus faecalis; conditions: enterococci, 24-hour incubation
[20] = test system: Haemophilus influenzae RD; assay: broth micro-dilution MIC; format: cell-based; conditions: Haemophilus influenzae RD
Experimental: as §1

| SMILES | MIC [1] [mg/L] | MIC [2] [mg/L] | MIC [3] [mg/L] | MIC (Entercoccus faecium 2041) [mg/L] | MIC (Entercoccus faecium 180) [mg/L] | MIC [4] [mg/L] | MIC [5] [mg/L] | MIC [6] [mg/L] | MIC [7] [mg/L] | mean geometric MIC, Vancomycin Sensitive Strains [8] [mg/L] | MIC [9] [mg/L] | MIC [10] [mg/L] | MIC [11] [mg/L] | MIC [12] [mg/L] | MIC [13] [mg/L] | MIC [14] [mg/L] | MIC [15] [mg/L] | MIC [16] [mg/L] | MIC (Entercoccus faecium 276) [mg/L] | mean geometric MIC, Vancomycin Resistant Strains [19] [mg/L] | also measured |
| --- | --- | --- | --- | --- | --- | --- | --- | --- | --- | --- | --- | --- | --- | --- | --- | --- | --- | --- | --- | --- | --- |
| CCCCCCCCCCC#CCNC1(C)CC(OC2C(Oc3c4cc5cc3Oc3ccc(cc3Cl)C(OC3CC(C)(N)C(O)C(C)O3)C3NC(=O)C(NC(=O)C5NC(=O)C(CC(N)=O)NC(=O)C(NC(=O)C(CC(C)C)NC)C(O)c5ccc(c(Cl)c5)O4)c4ccc(O)c(c4)-c4c(O)cc(O)cc4C(C(=O)O)NC3=O)OC(CO)C(O)C2O)OC(C)C1O (stereo not drawn) [Compound 191] | 8 (≈ 4.52 µM) | 2 (≈ 1.13 µM) | ≤ 0.06 | 1 (≈ 0.565 µM) | 4 (≈ 2.26 µM) | 8 (≈ 4.52 µM) | 2 (≈ 1.13 µM) | 2 (≈ 1.13 µM) | 2 (≈ 1.13 µM) | 0.57 | 0.5 (≈ 0.282 µM) | 1 (≈ 0.565 µM) | 2 (≈ 1.13 µM) | ≤ 0.06 | 2 (≈ 1.13 µM) | 2 (≈ 1.13 µM) | 2 (≈ 1.13 µM) | 0.25 (≈ 0.141 µM) | 4 (≈ 2.26 µM) | 6.7 | MIC [17]: 2 mg/L (≈ 1.13 µM); MIC [18]: 1 mg/L (≈ 0.565 µM) |
| CNC(CC(C)C)C(=O)NC1C(=O)NC(CC(N)=O)C(=O)NC2C(=O)NC3C(=O)NC(C(=O)NC(C(=O)O)c4cc(O)cc(O)c4-c4cc3ccc4O)C(OC3CC(C)(N)C(O)C(C)O3)c3ccc(c(Cl)c3)Oc3cc2cc(c3OC2OC(CO)C(O)C(O)C2OC2CC(C)(NCc3ccc(N=Nc4ccccc4)cc3)C(O)C(C)O2)Oc2ccc(cc2Cl)C1O (stereo not drawn) [Compound 210] | 1 (≈ 0.56 µM) | 1 (≈ 0.56 µM) | ≤ 0.06 | ≤ 0.06 | ≤ 0.06 | 1 (≈ 0.56 µM) | 0.25 (≈ 0.14 µM) | 0.125 (≈ 0.07 µM) | ≤ 0.06 | 0.041 | ≤ 0.06 | ≤ 0.06 | 1 (≈ 0.56 µM) | ≤ 0.06 | 2 (≈ 1.12 µM) | 0.5 (≈ 0.28 µM) | 1 (≈ 0.56 µM) | ≤ 0.06 | ≤ 0.06 | 0.84 | MIC [17]: 0.5 mg/L (≈ 0.28 µM); MIC [18]: ≤ 0.06 mg/L |
| CNC(CC(C)C)C(=O)NC1C(=O)NC(CC(N)=O)C(=O)NC2C(=O)NC3C(=O)NC(C(=O)NC(C(=O)O)c4cc(O)cc(O)c4-c4cc3ccc4O)C(OC3CC(C)(N)C(O)C(C)O3)c3ccc(c(Cl)c3)Oc3cc2cc(c3OC2OC(CO)C(O)C(O)C2OC2CC(C)(NCc3ccc4c(c3)CCc3ccccc3-4)C(O)C(C)O2)Oc2ccc(cc2Cl)C1O (stereo not drawn) [Compound 220] | 0.5 (≈ 0.28 µM) | 0.5 (≈ 0.28 µM) | ≤ 0.06 | ≤ 0.06 | 0.125 (≈ 0.07 µM) | 0.5 (≈ 0.28 µM) | 1 (≈ 0.56 µM) | 0.5 (≈ 0.28 µM) | 0.5 (≈ 0.28 µM) | 0.05 | ≤ 0.06 | ≤ 0.06 | 0.5 (≈ 0.28 µM) | ≤ 0.06 | 1 (≈ 0.56 µM) | 0.5 (≈ 0.28 µM) | 0.5 (≈ 0.28 µM) | ≤ 0.06 | 0.125 (≈ 0.07 µM) | 0.71 | MIC [17]: 1 mg/L (≈ 0.56 µM); MIC [18]: 0.5 mg/L (≈ 0.28 µM) |
| CNC(CC(C)C)C(=O)NC1C(=O)NC(CC(N)=O)C(=O)NC2C(=O)NC3C(=O)NC(C(=O)NC(C(=O)O)c4cc(O)cc(O)c4-c4cc3ccc4O)C(OC3CC(C)(N)C(O)C(C)O3)c3ccc(c(Cl)c3)Oc3cc2cc(c3OC2OC(CO)C(O)C(O)C2OC2CC(C)(NCc3ccc(-c4cccc(C)c4)cc3)C(O)C(C)O2)Oc2ccc(cc2Cl)C1O (stereo not drawn) [Compound 224] | 0.5 (≈ 0.282 µM) | 1 (≈ 0.564 µM) | ≤ 0.06 | ≤ 0.06 | ≤ 0.06 | 0.5 (≈ 0.282 µM) |  | 0.5 (≈ 0.282 µM) |  | 0.055 | ≤ 0.06 |  |  | ≤ 0.06 | 0.5 (≈ 0.282 µM) | 0.5 (≈ 0.282 µM) |  | ≤ 0.06 | ≤ 0.06 | 0.63 | MIC [20]: 32 mg/L (≈ 18.1 µM) |
| CCCCCC#Cc1ccc(CNC2(C)CC(OC3C(Oc4c5cc6cc4Oc4ccc(cc4Cl)C(OC4CC(C)(N)C(O)C(C)O4)C4NC(=O)C(NC(=O)C6NC(=O)C(CC(N)=O)NC(=O)C(NC(=O)C(CC(C)C)NC)C(O)c6ccc(c(Cl)c6)O5)c5ccc(O)c(c5)-c5c(O)cc(O)cc5C(C(=O)O)NC4=O)OC(CO)C(O)C3O)OC(C)C2O)cc1 (stereo not drawn) [Compound 227] | 4 (≈ 2.25 µM) | 2 (≈ 1.13 µM) | ≤ 0.06 | 0.25 (≈ 0.141 µM) | 0.25 (≈ 0.141 µM) | 4 (≈ 2.25 µM) | 2 (≈ 1.13 µM) | 4 (≈ 2.25 µM) | 4 (≈ 2.25 µM) | 0.11 | 0.6 (≈ 0.338 µM) | 2 (≈ 1.13 µM) | 2 (≈ 1.13 µM) | ≤ 0.06 | 2 (≈ 1.13 µM) | 2 (≈ 1.13 µM) | 4 (≈ 2.25 µM) | ≤ 0.06 | 0.5 (≈ 0.281 µM) | 0.71 | MIC [17]: 4 mg/L (≈ 2.25 µM); MIC [18]: 1 mg/L (≈ 0.563 µM) |
| CNC(CC(C)C)C(=O)NC1C(=O)NC(CC(N)=O)C(=O)NC2C(=O)NC3C(=O)NC(C(=O)NC(C(=O)O)c4cc(O)cc(O)c4-c4cc3ccc4O)C(OC3CC(C)(N)C(O)C(C)O3)c3ccc(c(Cl)c3)Oc3cc2cc(c3OC2OC(CO)C(O)C(O)C2OC2CC(C)(NCc3cccc(Sc4ccc(C(C)(C)C)cc4)c3)C(O)C(C)O2)Oc2ccc(cc2Cl)C1O (stereo not drawn) [Compound 228] | 4 (≈ 2.17 µM) | 2 (≈ 1.08 µM) | ≤ 0.06 | 0.25 (≈ 0.135 µM) | 1 (≈ 0.541 µM) | 4 (≈ 2.17 µM) | 2 (≈ 1.08 µM) | 4 (≈ 2.17 µM) | 8 (≈ 4.33 µM) | 0.14 | ≤ 0.06 | 1 (≈ 0.541 µM) | 2 (≈ 1.08 µM) | 0.125 (≈ 0.0677 µM) | 4 (≈ 2.17 µM) | 4 (≈ 2.17 µM) | 4 (≈ 2.17 µM) | ≤ 0.06 | 1 (≈ 0.541 µM) | 1.0 | MIC [17]: 4 mg/L (≈ 2.17 µM); MIC [18]: 1 mg/L (≈ 0.541 µM) |
